Measurements taken from ChEMBL document CHEMBL5291721, “A preclinical secondary pharmacology resource illuminates target-adverse drug reaction associations of marketed drugs” (Nat Commun, 2023).

Tests used:
[1] = biological target: T1, 5-hydroxytryptamine receptor 3A (Homo sapiens, UniProt P46098); assay type: functional
T1 sequence (P46098 whole entry): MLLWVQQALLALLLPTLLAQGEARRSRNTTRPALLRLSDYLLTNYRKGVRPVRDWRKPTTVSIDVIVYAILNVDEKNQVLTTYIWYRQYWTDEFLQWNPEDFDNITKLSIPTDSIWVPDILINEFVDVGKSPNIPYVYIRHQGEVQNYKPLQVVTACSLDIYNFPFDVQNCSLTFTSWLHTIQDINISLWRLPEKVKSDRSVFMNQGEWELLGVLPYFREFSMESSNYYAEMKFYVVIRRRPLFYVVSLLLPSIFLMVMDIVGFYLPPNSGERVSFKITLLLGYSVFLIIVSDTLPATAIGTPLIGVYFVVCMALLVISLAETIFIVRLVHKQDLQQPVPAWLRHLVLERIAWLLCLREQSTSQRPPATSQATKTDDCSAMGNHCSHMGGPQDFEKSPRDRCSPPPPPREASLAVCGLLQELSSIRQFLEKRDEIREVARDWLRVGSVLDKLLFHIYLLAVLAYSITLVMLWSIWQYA

[2] = biological target: T2, 5-hydroxytryptamine receptor 2B (Homo sapiens, UniProt P41595); assay type: functional, cell-based
[3] = biological target: Glutamate receptor ionotropic, NMDA 1 (Rattus norvegicus, UniProt P35439)
[4] = biological target: Sodium-dependent noradrenaline transporter (Homo sapiens, UniProt P23975)
[5] = biological target: Vasopressin V1a receptor (Homo sapiens, UniProt P37288)
[6] = biological target: Motilin receptor (Homo sapiens, UniProt O43193)
[7] = biological target: T2, 5-hydroxytryptamine receptor 2B; assay type: functional, cell-based; remark: listed apart in the source
[8] = biological target: T3, Adenosine receptor A1 (Homo sapiens, UniProt P30542)
T3 sequence (P30542 whole entry): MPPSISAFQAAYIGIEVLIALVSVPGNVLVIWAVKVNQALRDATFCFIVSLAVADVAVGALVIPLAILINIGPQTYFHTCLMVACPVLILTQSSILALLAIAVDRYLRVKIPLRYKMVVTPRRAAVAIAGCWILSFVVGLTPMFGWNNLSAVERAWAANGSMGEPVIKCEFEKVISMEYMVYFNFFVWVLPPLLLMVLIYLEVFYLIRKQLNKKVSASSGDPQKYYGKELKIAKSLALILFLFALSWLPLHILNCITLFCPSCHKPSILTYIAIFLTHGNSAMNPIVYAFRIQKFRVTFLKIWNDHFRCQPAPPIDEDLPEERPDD

[9] = biological target: T4, Prostaglandin G/H synthase 1 (Rattus norvegicus, UniProt Q63921); assay type: functional
T4 sequence (Q63921 whole entry): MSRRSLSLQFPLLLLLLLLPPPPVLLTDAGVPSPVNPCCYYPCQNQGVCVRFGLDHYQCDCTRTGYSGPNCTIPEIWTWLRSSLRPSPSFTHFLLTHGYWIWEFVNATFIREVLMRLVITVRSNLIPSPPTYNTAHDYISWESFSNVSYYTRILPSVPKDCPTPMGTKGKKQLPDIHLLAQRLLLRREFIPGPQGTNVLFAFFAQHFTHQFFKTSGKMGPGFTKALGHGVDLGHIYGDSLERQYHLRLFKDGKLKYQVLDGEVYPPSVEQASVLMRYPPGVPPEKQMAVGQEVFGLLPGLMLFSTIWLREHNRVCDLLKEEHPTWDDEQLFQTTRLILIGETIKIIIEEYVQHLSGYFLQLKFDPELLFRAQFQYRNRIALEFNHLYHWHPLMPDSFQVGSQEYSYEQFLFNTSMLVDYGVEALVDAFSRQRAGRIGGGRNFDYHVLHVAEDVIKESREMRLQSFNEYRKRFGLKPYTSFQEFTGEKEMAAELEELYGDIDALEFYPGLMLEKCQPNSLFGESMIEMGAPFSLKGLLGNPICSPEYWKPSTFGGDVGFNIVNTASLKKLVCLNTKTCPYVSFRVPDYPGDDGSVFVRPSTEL

[10] = biological target: T5, Type-1 angiotensin II receptor (Homo sapiens, UniProt P30556)
T5 sequence (P30556 whole entry): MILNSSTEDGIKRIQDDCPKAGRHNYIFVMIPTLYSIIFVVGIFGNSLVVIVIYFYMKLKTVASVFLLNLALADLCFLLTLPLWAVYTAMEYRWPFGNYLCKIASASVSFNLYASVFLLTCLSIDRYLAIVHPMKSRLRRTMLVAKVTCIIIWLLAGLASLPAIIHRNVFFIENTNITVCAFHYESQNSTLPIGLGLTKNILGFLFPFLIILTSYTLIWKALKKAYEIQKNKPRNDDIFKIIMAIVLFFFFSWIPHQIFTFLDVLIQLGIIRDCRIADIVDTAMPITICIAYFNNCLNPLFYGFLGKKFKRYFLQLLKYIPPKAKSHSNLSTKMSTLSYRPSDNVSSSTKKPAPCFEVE

[11] = biological target: T6, Alpha-2A adrenergic receptor (Homo sapiens, UniProt P08913); assay type: functional, cell-based
T6 sequence (P08913 whole entry): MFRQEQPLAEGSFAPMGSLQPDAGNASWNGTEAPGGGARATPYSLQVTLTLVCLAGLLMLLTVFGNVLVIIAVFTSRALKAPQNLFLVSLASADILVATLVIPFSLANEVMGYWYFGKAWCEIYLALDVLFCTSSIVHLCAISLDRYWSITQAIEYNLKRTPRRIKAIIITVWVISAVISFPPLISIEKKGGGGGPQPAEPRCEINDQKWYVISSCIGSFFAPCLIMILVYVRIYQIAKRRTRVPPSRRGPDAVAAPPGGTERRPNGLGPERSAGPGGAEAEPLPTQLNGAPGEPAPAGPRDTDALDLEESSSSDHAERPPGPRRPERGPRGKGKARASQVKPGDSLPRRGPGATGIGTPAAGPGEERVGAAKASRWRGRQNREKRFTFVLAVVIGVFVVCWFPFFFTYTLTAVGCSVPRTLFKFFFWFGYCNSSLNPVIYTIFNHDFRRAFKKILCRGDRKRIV

[12] = biological target: Vasopressin V2 receptor (Homo sapiens, UniProt P30518)
Note: assay procedure not described here.

Chain of Vasopressin V1a receptor (P37288 whole entry): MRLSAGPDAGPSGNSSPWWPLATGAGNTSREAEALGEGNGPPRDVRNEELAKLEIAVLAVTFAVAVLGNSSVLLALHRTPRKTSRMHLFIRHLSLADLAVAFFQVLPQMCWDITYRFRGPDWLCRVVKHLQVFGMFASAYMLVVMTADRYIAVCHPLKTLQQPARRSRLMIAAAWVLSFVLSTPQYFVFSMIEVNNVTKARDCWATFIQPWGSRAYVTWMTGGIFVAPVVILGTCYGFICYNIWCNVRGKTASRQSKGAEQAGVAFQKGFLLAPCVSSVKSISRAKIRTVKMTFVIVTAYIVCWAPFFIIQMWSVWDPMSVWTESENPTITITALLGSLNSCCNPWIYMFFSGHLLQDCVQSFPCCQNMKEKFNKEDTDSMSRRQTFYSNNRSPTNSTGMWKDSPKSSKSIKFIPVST
Chain of Motilin receptor (O43193 whole entry): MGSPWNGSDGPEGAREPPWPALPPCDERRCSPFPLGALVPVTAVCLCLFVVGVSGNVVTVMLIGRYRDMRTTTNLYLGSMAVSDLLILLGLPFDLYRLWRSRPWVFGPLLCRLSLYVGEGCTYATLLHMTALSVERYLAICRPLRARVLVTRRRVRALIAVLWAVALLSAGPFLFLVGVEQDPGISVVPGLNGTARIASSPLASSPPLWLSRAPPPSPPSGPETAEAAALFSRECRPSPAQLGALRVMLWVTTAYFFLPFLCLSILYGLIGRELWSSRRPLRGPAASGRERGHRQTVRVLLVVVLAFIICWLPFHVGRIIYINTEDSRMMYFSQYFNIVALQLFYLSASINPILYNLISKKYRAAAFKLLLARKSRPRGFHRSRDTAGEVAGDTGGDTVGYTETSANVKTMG
Chain of Vasopressin V2 receptor (P30518 whole entry): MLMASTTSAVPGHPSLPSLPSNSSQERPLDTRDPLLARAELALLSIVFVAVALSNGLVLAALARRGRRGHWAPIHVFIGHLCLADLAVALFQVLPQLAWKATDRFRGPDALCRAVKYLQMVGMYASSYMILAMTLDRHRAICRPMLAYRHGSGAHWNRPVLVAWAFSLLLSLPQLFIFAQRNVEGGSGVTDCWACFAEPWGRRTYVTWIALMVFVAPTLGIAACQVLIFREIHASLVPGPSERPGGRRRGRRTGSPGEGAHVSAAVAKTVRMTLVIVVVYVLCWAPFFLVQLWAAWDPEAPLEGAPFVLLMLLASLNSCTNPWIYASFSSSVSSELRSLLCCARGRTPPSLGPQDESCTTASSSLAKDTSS
T2 sequence (P41595 whole entry): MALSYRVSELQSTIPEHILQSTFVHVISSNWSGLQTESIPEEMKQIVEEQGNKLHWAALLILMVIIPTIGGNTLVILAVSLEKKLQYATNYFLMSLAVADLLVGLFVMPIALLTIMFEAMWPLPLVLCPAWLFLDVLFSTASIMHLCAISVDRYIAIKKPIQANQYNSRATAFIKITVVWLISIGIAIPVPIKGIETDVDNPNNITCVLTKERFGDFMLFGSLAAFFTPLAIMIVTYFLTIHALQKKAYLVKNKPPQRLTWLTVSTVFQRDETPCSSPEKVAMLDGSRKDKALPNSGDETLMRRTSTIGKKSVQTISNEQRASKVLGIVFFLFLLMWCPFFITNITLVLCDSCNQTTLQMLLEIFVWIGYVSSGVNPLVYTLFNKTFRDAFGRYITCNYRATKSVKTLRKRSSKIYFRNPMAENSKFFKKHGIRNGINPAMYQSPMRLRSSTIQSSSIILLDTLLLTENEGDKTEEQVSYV
Chain of Sodium-dependent noradrenaline transporter (P23975 whole entry): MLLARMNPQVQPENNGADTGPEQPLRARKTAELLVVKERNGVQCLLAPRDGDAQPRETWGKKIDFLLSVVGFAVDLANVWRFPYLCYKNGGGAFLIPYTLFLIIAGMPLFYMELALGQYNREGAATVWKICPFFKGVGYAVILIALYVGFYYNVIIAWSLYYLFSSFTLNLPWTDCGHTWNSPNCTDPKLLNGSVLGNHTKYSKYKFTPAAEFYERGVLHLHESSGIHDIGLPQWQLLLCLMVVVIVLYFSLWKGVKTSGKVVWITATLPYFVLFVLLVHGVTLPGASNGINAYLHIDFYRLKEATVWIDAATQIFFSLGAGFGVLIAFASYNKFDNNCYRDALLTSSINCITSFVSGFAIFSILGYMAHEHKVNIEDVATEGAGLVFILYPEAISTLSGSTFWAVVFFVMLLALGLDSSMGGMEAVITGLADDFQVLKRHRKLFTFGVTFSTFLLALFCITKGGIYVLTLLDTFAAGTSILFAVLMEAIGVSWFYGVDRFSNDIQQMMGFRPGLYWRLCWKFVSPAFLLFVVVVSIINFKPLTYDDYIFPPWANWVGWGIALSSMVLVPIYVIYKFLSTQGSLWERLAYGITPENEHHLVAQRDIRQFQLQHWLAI

| Structure (SMILES) | AC50 [1] | AC50 [2] | AC50 [3] | AC50 [4] | AC50 [5] | AC50 [6] | AC50 [7] | AC50 [8] | AC50 [9] | AC50 [10] | AC50 [11] | AC50 [12] |
| --- | --- | --- | --- | --- | --- | --- | --- | --- | --- | --- | --- | --- |
| C=C1/C(=C\C=C2/CCC[C@]3(C)[C@@H]([C@H](C)/C=C/[C@@H](O)C4CC4)CC[C@@H]23)C[C@@H](O)C[C@@H]1O [CALCIPOTRIENE] | > 30 µM | > 30 µM | > 30 µM | 20 µM | > 30 µM | > 30 µM | > 30 µM | > 30 µM | 2.2 µM | > 30 µM | > 30 µM | > 30 µM |
| COc1cc2c(cc1OC)C(CCc1ccc(Cl)cc1)N(C)CC2 (stereo not drawn) [METHOPHOLINE] | > 30 µM | > 10 µM | > 10 µM | > 30 µM | > 30 µM | > 30 µM | > 10 µM | > 30 µM | 0.77 µM | > 30 µM | > 10 µM | > 30 µM |
| CCN(CC)C(=O)Nc1ccc(OCC(O)CNC(C)(C)C)c(C(C)=O)c1 (stereo not drawn) [CELIPROLOL] | > 30 µM | > 30 µM | > 30 µM | > 30 µM | > 30 µM | > 30 µM | > 30 µM | > 30 µM | > 30 µM | > 30 µM | > 30 µM | > 30 µM |
| Oc1ccc2c(c1)[C@@]13CCCC[C@@]1(O)[C@@H](C2)N(CC1CCC1)CC3 [BUTORPHANOL] | > 30 µM | > 30 µM | > 30 µM | > 30 µM | > 30 µM | > 30 µM | > 30 µM | > 30 µM | > 30 µM | > 30 µM | > 30 µM | > 30 µM |
| C=C[C@@]1(C)CC(=O)[C@]2(O)[C@@]3(C)[C@@H](O)CCC(C)(C)[C@@H]3[C@H](O)[C@H](OC(C)=O)[C@@]2(C)O1 [COLFORSIN] | > 30 µM | > 30 µM | > 30 µM | > 30 µM | > 30 µM | > 30 µM | > 30 µM | > 30 µM | > 30 µM | > 30 µM | 4.3 µM | > 30 µM |
| CCC(COC(=O)c1cc(OC)c(OC)c(OC)c1)(c1ccccc1)N(C)C (stereo not drawn) [TRIMEBUTINE] | > 30 µM | > 30 µM | > 30 µM | > 30 µM | > 30 µM | > 30 µM | > 30 µM | > 30 µM | > 30 µM | > 30 µM | > 30 µM | > 30 µM |
| CCCCCCCCCCCCCCCCCCCCCC(=O)Nc1ccn([C@@H]2O[C@H](CO)[C@@H](O)[C@@H]2O)c(=O)n1 [ENOCITABINE] | > 30 µM | > 30 µM | > 30 µM | > 30 µM | > 30 µM | > 30 µM | > 30 µM | > 30 µM | > 30 µM | > 30 µM | > 30 µM | > 30 µM |
| CC(=O)OCC(=O)[C@@]1(O)[C@H](C)C[C@H]2[C@@H]3CCC4=CC(=O)C=C[C@]4(C)[C@@]3(F)[C@@H](O)C[C@@]21C [DEXAMETHASONE ACETATE] | > 30 µM | > 10 µM | > 10 µM | > 30 µM | > 30 µM | > 10 µM | > 10 µM | > 30 µM | > 30 µM | > 30 µM | > 10 µM | > 30 µM |
| COc1ccc(-c2noc(CC(=O)O)c2-c2ccc(OC)cc2)cc1 [MOFEZOLAC] | > 30 µM | > 30 µM | > 30 µM | > 30 µM | > 30 µM | > 30 µM | > 30 µM | > 30 µM | 0.037 µM | > 30 µM | > 30 µM | > 30 µM |
